Key:
[1] = cited from earlier work
[2] = Dynamic viscosity of alginate solution after treatment (alginate depolymerisation), Brookfield cone/plate viscometer; conditions: 60 min at 50° C.
Protocol: The bottle was placed in a warm water bath (50° C.) for 60 minutes before being removed and cooled in an ice bath. Finally, the dynamic viscosity was determined using a Brookfield viscosity meter as outlined below. Note 1: A 2 mM solution of [[…])2 (see description of stock 12 above) was mixed with equivalent volume of the 2 mM ascorbic acid stock solution (stock solution 7). Upon contact with the ascorbic acid, the catalyst turned from orange/red to red/purple. Note 2: 0.5 mL of both Me3-TACN ligand (stock solution 10) and MnSO4·H2O (stock solution 8) were mixed, stirred and used as a source of catalyst to be placed in the alginate solution. The dynamic viscosity of the samples was measured using a Brookfield HBDV-II cone/plate viscosity meter equipped with a spindle CPE-40. The viscometer was linked to a water bath to maintain the temperature at 25° C. The apparatus was controlled via computer (external mode) using the Rheocalc software. Initially, the viscometer was zeroed without spindle. Then, the spindle CPE-40 was installed and the gap between the bottom of the cone and the top of the cup was set according to the recommendations given by Brookfield. 0.5 mL of the treated alginate solution was placed in the cup of the viscometer using a disposable plastic syringe before the apparatus was closed and the test program launched. […] Results.

[3] = at 20° C.; cited from earlier work

For `O=C(O)[C@H]1O[C@@H](O)[C@@H](O)[C@@H](O)[C@@H]1O` [β-D-mannuronic acid], the pKa [1] is given as 3.38.
In the case of `O=C(O)[C@@H]1O[C@@H](O)[C@@H](O)[C@@H](O)[C@@H]1O` [α-L-guluronic acid], the pKa [1] is listed as 3.65.
In the case of `O=S(=O)([O-])[O-].[Mn+2]` [MnSO4, manganese sulfate], the “Dynamic Viscosity” value ([2]; Entry 1: 10 μM MnSO4, 10 μM Me3TACN ligand, 20 mM H2O2, 4.7 mM NaHCO3, pH 10) is reported as 85.4 mPa · s, the “Dynamic Viscosity” value ([2]; Entry 2: 10 μM MnSO4, 20 μM Me3TACN ligand, 20 mM H2O2, 4.7 mM NaHCO3, pH 10) is reported as 76.1 mPa · s and the “Dynamic Viscosity” value ([2]; Entry 3: 10 μM MnSO4, 40 μM Me3TACN ligand, 20 mM H2O2, 4.7 mM NaHCO3, pH 10) is reported as 63.4 mPa · s.
For [Mn^IVMn^IV(μ-O)3(Me3-TACN)2][PF6]2, the water solubility [3] is given as 10.8 mg/mL.
With `CC(=O)[O-].CN1CCN(C)CCN(CCN2CCN(C)CCN(C)CC2)CC1.[Cl-].[Cl-].[Mn+3].[Mn+4].[O-2].[O-2]` [[Mn2(μ-O)2(μ-CH3COO)(Me4-DTNE)]^2+, [Mn2(μ-O)2(μ-CH3COO)(Me4DTNE)]Cl2] the “Dynamic Viscosity” value ([2]; 2.5 μM, pH 7.5, 10 mM H2O2, no buffer) was 82.3 mPa · s, the “Dynamic Viscosity” value ([2]; 2.5 μM, pH 8.0, 10 mM H2O2, no buffer) was 82.9 mPa · s and the “Dynamic Viscosity” value ([2]; 2.5 μM, pH 8.5, 10 mM H2O2, no buffer) was 80.7 mPa · s. For the same compound, the “Dynamic Viscosity” value ([2]; 5.0 μM, pH 7.5, 10 mM H2O2, no buffer) was 49.4 mPa · s, the “Dynamic Viscosity” value ([2]; 5.0 μM, pH 8.0, 10 mM H2O2, no buffer) was 53.7 mPa · s and the “Dynamic Viscosity” value ([2]; 5.0 μM, pH 8.5, 10 mM H2O2, no buffer) was 51.5 mPa · s. The “Dynamic Viscosity” value ([2]; 5.0 μM, pH 9.0, 10 mM H2O2, no buffer) was 62.9 mPa · s.
